The record followed here is ChEMBL document CHEMBL2406977, “The discovery of PLK4 inhibitors: (E)-3-((1H-Indazol-6-yl)methylene)indolin-2-ones as novel antiproliferative agents” (J Med Chem, 2013).

Structures are written as SMILES.

One data set has as its system HCC1954. Put plainly: Antiproliferative activity against human HCC1954 cells assessed as growth inhibition after 5 days by SRB assay. Format: functional. The following applies: HCC1954, 120 h. (Sulforhodamine B stains cellular protein and so reports cell mass.)
For data set [1], the target named is T1, Serine/threonine-protein kinase PLK4 (Homo sapiens, UniProt O00444).
T1 sequence (O00444 whole entry): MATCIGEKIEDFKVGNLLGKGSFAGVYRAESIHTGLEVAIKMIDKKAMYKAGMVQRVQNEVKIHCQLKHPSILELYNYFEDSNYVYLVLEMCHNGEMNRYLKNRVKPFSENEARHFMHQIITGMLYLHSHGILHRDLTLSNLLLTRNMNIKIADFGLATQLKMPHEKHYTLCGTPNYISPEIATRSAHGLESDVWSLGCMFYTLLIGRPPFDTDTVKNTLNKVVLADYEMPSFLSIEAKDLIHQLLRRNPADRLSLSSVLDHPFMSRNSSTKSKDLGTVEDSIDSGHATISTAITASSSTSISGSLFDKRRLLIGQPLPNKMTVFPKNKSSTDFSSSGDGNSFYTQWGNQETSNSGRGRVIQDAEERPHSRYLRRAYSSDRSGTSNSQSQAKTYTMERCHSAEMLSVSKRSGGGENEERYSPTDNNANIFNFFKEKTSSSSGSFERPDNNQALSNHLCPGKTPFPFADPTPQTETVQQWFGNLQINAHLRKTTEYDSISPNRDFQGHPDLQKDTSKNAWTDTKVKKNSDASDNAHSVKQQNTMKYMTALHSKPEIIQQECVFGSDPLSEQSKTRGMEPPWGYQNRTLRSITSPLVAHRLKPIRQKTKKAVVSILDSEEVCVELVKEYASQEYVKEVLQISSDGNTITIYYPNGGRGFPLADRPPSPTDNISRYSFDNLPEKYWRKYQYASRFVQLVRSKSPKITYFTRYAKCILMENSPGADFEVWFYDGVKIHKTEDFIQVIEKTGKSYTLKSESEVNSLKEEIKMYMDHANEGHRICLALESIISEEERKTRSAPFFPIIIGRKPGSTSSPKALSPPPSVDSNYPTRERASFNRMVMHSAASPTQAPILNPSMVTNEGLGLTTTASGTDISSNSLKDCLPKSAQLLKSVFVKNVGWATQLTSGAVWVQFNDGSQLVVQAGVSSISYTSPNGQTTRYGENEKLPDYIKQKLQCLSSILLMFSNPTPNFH
Briefly: Inhibition of N-terminal GST-tagged human PLK4 (1 to 391 amino acids) expressed in Escherichia coli using TMB as substrate after 30 mins by indirect ELISA assay.

The test system of a further data set is SK-BR-3. Briefly: Antiproliferative activity against human SKBR3 cells assessed as growth inhibition after 5 days by SRB assay. Type of data set: functional. The note with it: SK-BR-3, 120 h.
A further data set concerns MDA-MB-468. Briefly: Antiproliferative activity against human MDA-MB-468 cells assessed as growth inhibition after 5 days by SRB assay. The note with it: MDA-MB-468, 120 h. Type of data set: functional.
For data set [2], the target named is Serine/threonine-protein kinase PLK3 (Homo sapiens, UniProt Q9H4B4). Briefly: Inhibition of PLK3 (unknown origin) by FRET-based homogeneous assay.
Serine/threonine-protein kinase PLK3, sequence (Q9H4B4 whole entry): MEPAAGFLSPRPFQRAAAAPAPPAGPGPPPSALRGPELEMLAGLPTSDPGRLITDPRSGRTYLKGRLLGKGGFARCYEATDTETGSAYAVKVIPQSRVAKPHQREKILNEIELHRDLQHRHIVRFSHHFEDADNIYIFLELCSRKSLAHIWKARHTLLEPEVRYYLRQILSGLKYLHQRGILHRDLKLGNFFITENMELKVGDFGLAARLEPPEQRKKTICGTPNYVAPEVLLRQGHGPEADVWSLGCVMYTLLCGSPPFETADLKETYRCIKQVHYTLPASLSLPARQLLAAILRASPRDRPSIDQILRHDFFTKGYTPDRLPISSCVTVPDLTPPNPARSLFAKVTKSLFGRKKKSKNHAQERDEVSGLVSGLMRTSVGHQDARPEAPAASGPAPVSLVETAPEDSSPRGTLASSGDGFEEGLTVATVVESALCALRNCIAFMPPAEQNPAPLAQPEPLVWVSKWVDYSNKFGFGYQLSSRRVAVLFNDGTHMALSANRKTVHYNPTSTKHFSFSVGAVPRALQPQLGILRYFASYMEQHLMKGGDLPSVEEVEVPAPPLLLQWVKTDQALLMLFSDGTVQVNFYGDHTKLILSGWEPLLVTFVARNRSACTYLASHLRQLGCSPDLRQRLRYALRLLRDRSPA
For another data set, the system named is MDA-MB-231. Briefly: Antiproliferative activity against human MDA-MB-231 cells assessed as growth inhibition after 5 days by SRB assay. Format: functional. The note with it: MDA-MB-231, 120 h.
The next data set relates to MCF7. Put plainly: Antiproliferative activity against human MCF7 cells assessed as growth inhibition after 5 days by SRB assay. The following applies: MCF7, 120 h. Format: functional.
Data set [3] has as its target Serine/threonine-protein kinase PLK2 (Homo sapiens, UniProt Q9NYY3). Put plainly: Inhibition of PLK2 (unknown origin) by FRET-based homogeneous assay.
The target of data set [4] is Serine/threonine-protein kinase PLK1 (Homo sapiens, UniProt P53350). Put plainly: Inhibition of PLK1 (unknown origin) by FRET-based homogeneous assay.
Serine/threonine-protein kinase PLK1, sequence (P53350 whole entry): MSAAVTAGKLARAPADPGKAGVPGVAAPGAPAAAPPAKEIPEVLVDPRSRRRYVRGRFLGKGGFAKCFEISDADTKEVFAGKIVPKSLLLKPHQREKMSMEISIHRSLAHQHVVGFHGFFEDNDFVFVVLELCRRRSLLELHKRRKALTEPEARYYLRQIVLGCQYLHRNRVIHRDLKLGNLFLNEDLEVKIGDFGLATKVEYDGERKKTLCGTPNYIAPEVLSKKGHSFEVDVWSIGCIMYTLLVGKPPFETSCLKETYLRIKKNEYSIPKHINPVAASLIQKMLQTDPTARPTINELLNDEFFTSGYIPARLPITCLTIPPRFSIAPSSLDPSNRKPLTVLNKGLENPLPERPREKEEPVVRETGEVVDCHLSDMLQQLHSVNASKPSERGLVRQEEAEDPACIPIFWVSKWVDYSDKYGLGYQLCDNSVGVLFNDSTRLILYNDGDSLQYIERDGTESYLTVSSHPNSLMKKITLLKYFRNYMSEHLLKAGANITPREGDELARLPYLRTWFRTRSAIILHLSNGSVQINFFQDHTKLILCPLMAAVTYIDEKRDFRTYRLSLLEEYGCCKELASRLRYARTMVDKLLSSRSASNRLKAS
Data set [5] is described as follows: Permeability of the compound at pH 7.4 by PAMPA. Format: ADME. The following applies: read-out: permeability.

Serine/threonine-protein kinase PLK2, sequence (Q9NYY3 whole entry): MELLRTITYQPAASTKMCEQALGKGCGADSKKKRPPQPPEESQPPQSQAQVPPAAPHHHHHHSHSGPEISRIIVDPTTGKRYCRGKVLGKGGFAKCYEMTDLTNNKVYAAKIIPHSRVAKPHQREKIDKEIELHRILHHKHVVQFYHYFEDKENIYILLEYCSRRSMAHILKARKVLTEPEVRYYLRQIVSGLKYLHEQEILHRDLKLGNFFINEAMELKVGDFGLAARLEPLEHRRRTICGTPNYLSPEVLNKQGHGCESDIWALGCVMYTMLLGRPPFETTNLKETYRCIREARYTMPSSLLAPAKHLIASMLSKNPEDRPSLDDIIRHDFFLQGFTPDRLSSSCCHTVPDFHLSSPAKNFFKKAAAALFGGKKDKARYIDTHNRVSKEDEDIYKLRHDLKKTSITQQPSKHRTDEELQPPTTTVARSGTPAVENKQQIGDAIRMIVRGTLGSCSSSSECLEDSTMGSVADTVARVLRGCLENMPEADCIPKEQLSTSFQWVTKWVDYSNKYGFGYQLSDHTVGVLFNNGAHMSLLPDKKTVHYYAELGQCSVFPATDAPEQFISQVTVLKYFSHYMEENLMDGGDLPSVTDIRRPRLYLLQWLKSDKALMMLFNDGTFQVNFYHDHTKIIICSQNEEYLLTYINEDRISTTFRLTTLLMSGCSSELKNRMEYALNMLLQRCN

Take `COc1ccc2c(c1)/C(=C\c1ccc3c(/C=C/c4ccc(CN(C)C)cc4)n[nH]c3c1)C(=O)N2`: the 50% growth inhibitory concentration (GI50) (commonly the concentration giving 50% growth inhibition) in the data set with HCC1954 is 1.4 µM; in the data set on SK-BR-3, 0.03 µM; with MDA-MB-468, 0.03 µM; with MDA-MB-231 it was 0.01 µM; with MCF7 it was under 0.01 µM. Moreover, the IC50 (as a rule, the concentration that gives 50% inhibition) in data set [1] is 0.00032 µM; in data set [2] it was over 10 µM; in data set [3], over 10 µM; in data set [4] it was over 10 µM.
In the case of `COc1cc(/C=C2\C(=O)N(C)c3ccc(Br)cc32)cc(Cl)c1O`, the 50% inhibitory concentration (IC50) in [1] is 6.1 µM; in data set [4], over 10 µM.
Regarding `O=C1Nc2ccccc2/C1=C/c1cccc(O)c1`, the IC50 in data set [1] is 0.86 µM; in [4], 25 µM.
Turning to `O=C1Nc2ccccc2/C1=C\c1ccc2c(/C=C/c3ccccn3)n[nH]c2c1`, the 50% growth inhibitory concentration (GI50) is 30 µM with HCC1954; 1.2 µM in the data set with SK-BR-3; 0.78 µM in the data set with MDA-MB-468; 8.1 µM in the data set on MDA-MB-231; 1.7 µM with MCF7. Further, the IC50 was 0.013 µM in data set [1], over 10 µM in data set [2], over 10 µM in [3] and over 10 µM in [4].
As to `O=C1Nc2ccc(O)cc2/C1=C\c1ccc2c(/C=C/c3ccncc3)n[nH]c2c1`, the GI50 in the data set with HCC1954 was over 50 µM; with SK-BR-3, over 50 µM; with MDA-MB-468 it was 0.73 µM; in the data set with MCF7 it was over 50 µM. The 50% inhibitory concentration (IC50) was 0.0009 µM in [1], over 10 µM in [2], over 10 µM in data set [3] and over 10 µM in data set [4]. The Papp in data set [5] worked out at 4 ×10⁻⁶ cm/s.
Take `CC(=O)Nc1ccc2c(c1)NC(=O)/C2=C/c1ccc2cn[nH]c2c1`: the IC50 is 1.2 µM in [1], over 10 µM in [2], 10 µM in [3] and over 10 µM in data set [4].
Turning to `O=C1Nc2ccccc2/C1=C\c1ccc2[nH]nnc2c1`, the concentration for half-maximal inhibition (IC50) in data set [1] is 2.2 µM; in data set [2] it was over 10 µM; in data set [3], 8.9 µM; in [4] it was 29 µM.
The corresponding values for `O=C1Nc2ccccc2/C1=C/c1ccc2[nH]ncc2c1` are 0.39 µM, 11 µM, 1.9 µM and 20 µM.
Consider `O=C1Nc2ccccc2/C1=C\c1ccc2cn[nH]c2c1`, for which the IC50 in [2] is over 10 µM; in [3] it was 5.7 µM; in data set [4], 24 µM.
`O=C1Nc2ccc(I)cc2/C1=C/c1cc(Br)c(O)c(Br)c1`: the concentration for half-maximal inhibition (IC50) in [1] is 0.23 µM; in data set [4], 4.6 µM.
As for `O=C1Nc2ccc(F)cc2/C1=C\c1ccc2cn[nH]c2c1`, the figures for the half-inhibitory concentration (IC50) in [1], in [3] and in data set [4] were 0.06 µM, 4.4 µM and 15 µM, respectively.
As for `O=C1Nc2ccccc2/C1=C/c1ccccc1O`, the values for the 50% inhibitory concentration (IC50) in [1] and in [4] were 6.1 µM and 29 µM, respectively.
On to `COc1ccc2c(c1)/C(=C\c1ccc3cn[nH]c3c1)C(=O)N2`, for which the IC50 was 0.047 µM in data set [1], under 10 µM in data set [2], under 10 µM in data set [3] and 10 µM in data set [4].
Take `O=C1Nc2ccccc2/C1=C/c1ccc(O)cc1`: the half-inhibitory concentration (IC50) in data set [1] was 0.23 µM; in data set [4], 25 µM.
Regarding `Cc1ccc2c(c1)/C(=C\c1ccc3c(/C=C/c4ccncc4)n[nH]c3c1)C(=O)N2`, the concentration for 50% growth inhibition (GI50) with HCC1954 was 13 µM; with SK-BR-3 it was over 50 µM; in the data set on MDA-MB-468, 0.12 µM; in the data set on MDA-MB-231, 5 µM; in the data set on MCF7, 0.07 µM. Besides, the half-inhibitory concentration (IC50) is 0.0014 µM in [1], over 10 µM in data set [2], over 10 µM in data set [3] and over 10 µM in [4].
On to `O=C1Nc2ccc(Br)cc2/C1=C/c1ccc(O)c(O)c1`, for which the values for the concentration for half-maximal inhibition (IC50) in [1] and in [4] were 13 µM and over 10 µM, respectively.
Consider `O=C1Nc2ccc(Cl)cc2/C1=C\c1ccc2cn[nH]c2c1`, for which the 50% inhibitory concentration (IC50) was 0.054 µM in data set [1], over 10 µM in data set [2], over 10 µM in [3] and over 10 µM in data set [4].
Turning to `COc1ccc2c(c1)/C(=C\c1ccc3c(/C=C/c4ccncc4)n[nH]c3c1)C(=O)N2`, the concentration for 50% growth inhibition (GI50) stood at 3.1 µM in the data set with HCC1954, 0.14 µM in the data set on MDA-MB-468, 21 µM in the data set with MDA-MB-231 and 0.04 µM in the data set with MCF7. For the same compound, the IC50 was 0.00045 µM in data set [1], over 10 µM in data set [2], over 10 µM in data set [3] and over 10 µM in data set [4].
For the compound `O=C1Nc2ccc(F)cc2/C1=C/c1ccc2cn[nH]c2c1`, the IC50 in data set [1] is 0.24 µM; in data set [2] it was 24 µM; in data set [3] it was over 10 µM; in data set [4] it was 15 µM.
Regarding `CCc1ccc2c(c1)/C(=C\c1ccc3c(/C=C/c4cccnc4)n[nH]c3c1)C(=O)N2`, the GI50 in the data set with HCC1954 was 33 µM; in the data set on SK-BR-3 it was 13 µM; in the data set on MDA-MB-468, 0.09 µM; with MDA-MB-231 it was over 50 µM; in the data set with MCF7 it was 1.7 µM. Besides, the IC50 was 0.0016 µM in [1], over 10 µM in [2], over 10 µM in [3] and over 10 µM in [4].
`COc1cc(/C=C2\C(=O)Nc3ccc(Br)cc32)cc(Br)c1OC`: the IC50 in data set [1] is 13 µM; in data set [4] it was over 10 µM.
For the compound `COc1cc(/C=C2\C(=O)Nc3ccc(Br)cc32)cc(Cl)c1O`, the results for the concentration for half-maximal inhibition (IC50) in data set [1] and in [4] were 0.86 µM and 3.6 µM, respectively.
With `CNC(=O)c1ccc2c(c1)/C(=C\c1ccc3cn[nH]c3c1)C(=O)N2`, the IC50 in data set [1] amounted to 10 µM; in [4] it was 49 µM.
As to `O=C1Nc2cc(Cl)ccc2/C1=C\c1ccc2cn[nH]c2c1`, the 50% inhibitory concentration (IC50) in [1] is 1.3 µM; in data set [2], over 10 µM; in data set [3] it was over 10 µM; in [4] it was 26 µM.
With `CC(=O)Nc1ccc2c(c1)/C(=C\c1ccc3cn[nH]c3c1)C(=O)N2`, the concentration for half-maximal inhibition (IC50) is 6.3 µM in [1], over 10 µM in [2], 10 µM in [3] and over 10 µM in [4].
`O=C1Nc2ccc(Cl)cc2/C1=C\c1ccc2c(/C=C/c3ccncc3)n[nH]c2c1`: the 50% growth inhibitory concentration (GI50) with HCC1954 was over 50 µM; in the data set on SK-BR-3, over 50 µM; in the data set on MDA-MB-468, 0.32 µM; in the data set on MDA-MB-231 it was over 50 µM; with MCF7, 0.16 µM. Moreover, the concentration for half-maximal inhibition (IC50) in [1] was 0.0023 µM; in data set [2], over 10 µM; in data set [3], over 10 µM; in data set [4], over 10 µM.
`O=C1Nc2ccccc2/C1=C\c1ccc2c(/C=C/c3cccnc3)n[nH]c2c1`: the GI50 in the data set with HCC1954 was 12 µM; in the data set on SK-BR-3, over 50 µM; with MDA-MB-468 it was 0.29 µM; in the data set with MDA-MB-231, over 50 µM; with MCF7 it was 0.28 µM. In addition, the IC50 in data set [1] is 0.002 µM; in [2], over 10 µM; in [3] it was over 10 µM; in data set [4], over 10 µM.
Regarding `COc1ccc2c(c1)/C(=C\c1ccc3c(/C=C/c4cccnc4)n[nH]c3c1)C(=O)N2`, the concentration for 50% growth inhibition (GI50) was over 50 µM in the data set with HCC1954; 4.6 µM in the data set on SK-BR-3; 0.19 µM in the data set on MDA-MB-468; over 50 µM with MDA-MB-231; 0.12 µM in the data set with MCF7. Moreover, the IC50 in data set [1] is 0.00048 µM; in [2], over 10 µM; in data set [3] it was over 10 µM; in [4] it was over 10 µM.
Turning to `O=C1Nc2ccccc2/C1=C\c1ccc2c(/C=C/c3ccccc3)n[nH]c2c1`, the 50% inhibitory concentration (IC50) is 0.042 µM in [1], over 10 µM in [2], over 10 µM in data set [3] and over 10 µM in [4]. The concentration for 50% growth inhibition (GI50) in the data set on SK-BR-3 is 12 µM; in the data set with MDA-MB-468, 4.4 µM; in the data set with MDA-MB-231, over 50 µM; in the data set with MCF7, 5.2 µM.
As to `CNC(=O)c1ccccc1Sc1ccc2c(/C=C/c3ccccn3)n[nH]c2c1` [AXITINIB], the 50% growth inhibitory concentration (GI50) in the data set on HCC1954 stood at 2.7 µM; in the data set with MDA-MB-468, 1.3 µM.
